One experiment concerns cleaved caspase-3. The experiment is described as follows: Western blot, cleaved caspase-3. Format: cell-based, human. The procedure:
(§1) e. Measurement of intracellular calcium (Ca 2+)
(§2) Ca2+sensitive dye Fura-2AM was used to measure free intracellular Ca2+level in SH-SY5Y cell suspension by the previously described method.12 Following treatment with the respective drug, Fura-2 AM (Cayman, USA) at a concentration of 5 µM was added to the culture medium and incubated at 37°C for 45 min. Next, Krebs-Ringer-HEPES (KRH) buffer (135mM NaCl, 5mM KCl, 1mM MgSO4, 0.4mM KH2PO4, 1mM CaCl2, 5.5mM glucose, 20mM HEPES, pH 7.4) was used to wash each plate twice containing (1×10^6cells). Fluorescent microplate reader (FLX 800, Biotek, USA) was used to measure the fluorescence intensity with an excitation and emission spectra of […], respectively. Results are Mean±SEM of quadruplicate measurements from three separate experiments and expressed in the increase in percent relative fluorescent unit (RFU) relative to the baseline reading.
(§3) Western blot analysis was performed to measure Bax, Bcl-2, cleaved Caspase 9 and cleaved Caspase 3, pro and anti-apoptotic proteins expression. About 5× 10^6 cells were washed with PBS twice following […]
(§4) overnight. […] The optical density (OD) value of each band was analyzed by the electrophoresis image analysis system (Smartview 2001, S/N: SV-0002202, Japan) and normalized against the corresponding β-actin band. […]
Background: A western blot detects proteins with antibodies after separation by electrophoresis.

The next experiment has as its system Bax, Bcl-2. The experiment is described as follows: Western blot, Bax and Bcl-2. The following applies: Aβ40 alone (10 μM), compared to healthy cells. The class given is cell-based, human. As to the method:
as §1, §2, §3, §4

For “Aβ40: commercially available Aβ40 peptide”, the “caspase-3 activation by Aβ40 alone” value with cleaved caspase-3 was “leads to activation of caspase-3 directed DNA breakage, nuclear chromatin condensation, and neurocellular apoptosis”. Moreover, the “ratio of Bax/Bcl-2 expression” value with Bax, Bcl-2 is recorded as around 3.2 fold.

The values are drawn from article PMC8179358, “An explicitly designed paratope of amyloid-β prevents neuronal apoptosis in vitro and hippocampal damage in rat brain” (Chemical Science, 2020).
